Laboratory results: patent US11751567B2, “Steroidal piperidone derivative, synthesis method, and use thereof” (NORTHWEST A&F UNIVERSITY, priority 2021, dated 2023)
In brackets after ≈: the same amount, converted by molar mass. Where two headings read alike, the source gives them in different places.

How the values were obtained:
Type in all cases: in vivo
Tetranychus truncatus = assay: slide dipping mortality test on mites; settings: read-out: Corrected mortality (%) Tetranychus truncatus
Experimental: (§1) Inhibitory activities of the steroidal piperidone derivatives listed in Tables 1 and 2 against Myzus persicae, Aphis citricola, Brevicoryne brassicae, and wheat aphids were determined through slide-dip method. Specific process: A specified amount of a compound to be tested was accurately weighed and dissolved with acetone as a solvent, and solutions with concentrations of 50 μg/mL and 75 μg/mL were each prepared with a 0.1% Tween-80 aqueous solution, allowed to stand at room temperature for 0.5 h until the sample was completely dissolved, and stored for later use. Then, adult aphids were fixed with double-sided tape on slides with a small brush. One end of the slide with the aphids was immersed in the test solutions for 5 seconds. The excess liquid was absorbed with absorbent paper, and the mortality rates were calculated 24 h after treatment. Acetamiprid was adopted as a positive control, and a 0.1% Tween-80 aqueous solution was adopted as a negative control. and the results are shown in Table 1.
The inhibitory activities of the steroidal piperidone derivatives listed in Table 3 on Tetranychus truncatus were tested through slide dipping.

rice planthoppers = assay: foliar spray test against rice planthoppers; settings: 72 h, read-out: Corrected mortality (%) rice planthoppers
Experimental: (§2) The toxic activities of the steroidal piperidone derivatives listed in Table 4 against B. tabaci were tested by a foliar spray method. Specific process: A specified amount of a compound to be tested was accurately weighed and dissolved in acetone, and solutions with concentrations of 50 μg/mL and 75 μg/mL were each prepared with a 0.1% of Tween 80 aqueous solution and stored for later use. The pesticide solution was sprayed on the back side of a cucumber leaf, the cucumber leaf was naturally dried, and B. tabaci to be tested were placed on the cucumber leaf. Thiamethoxam was used as a positive control, and acetone was used as a negative control. Several deaths were observed after 7 d of treatment, and the corrected mortality was calculated.
The toxic activities of the steroidal piperidone derivatives listed in Table 5 against rice planthoppers were tested by a foliar spray method. Imidacloprid was used as a positive control, and acetone was used as a negative control. Several deaths were observed after 3 d of treatment, and the corrected mortality was calculated.

wheat aphids = assay: slide-dip mortality test on aphids (wheat aphids); settings: 24 h, read-out: Corrected mortality (%) Wheat aphid
Experimental: as §1

Bemisia tabaci = assay: foliar spray test on cucumber leaf against B. tabaci; settings: 168 h, read-out: Corrected mortality (%) B. tabaci
Experimental: as §2

Brevicoryne brassicae = assay: slide-dip mortality test on aphids (Brevicoryne brassicae); settings: 24 h, read-out: Corrected mortality (%) Brevicoryne brassicae
Experimental: as §1

Aphis citricola = assay: slide-dip mortality and LC50 test on aphids (Aphis citricola); settings: for mortality at 50 µg/mL / mortality at 75 µg/mL: 24 h, read-out: Corrected mortality (%) Aphis citricola; for LC50: read-out: LC50 of inhibitory activity against Aphis citricola
Experimental: as §1

Myzus persicae = assay: slide-dip mortality test on aphids (Myzus persicae); settings: 24 h, read-out: Corrected mortality (%) Myzus persicae
Experimental: as §1

[1] = 50 μg/mL, slide dipping, process as for aphids
[2] = 75 μg/mL, slide dipping, process as for aphids

| SMILES | mortality at 50 µg/mL (Tetranychus truncatus; [1]) [%] | mortality at 75 µg/mL (Tetranychus truncatus; [2]) [%] | mortality at 50 µg/mL (rice planthoppers) [%] | mortality at 75 µg/mL (rice planthoppers) [%] | mortality at 50 µg/mL (wheat aphids) [%] | mortality at 75 µg/mL (wheat aphids) [%] | mortality at 50 µg/mL (Bemisia tabaci) [%] | mortality at 75 µg/mL (Bemisia tabaci) [%] | mortality at 50 µg/mL (Brevicoryne brassicae) [%] | mortality at 75 µg/mL (Brevicoryne brassicae) [%] | mortality at 50 µg/mL (Aphis citricola) [%] | mortality at 75 µg/mL (Aphis citricola) [%] | mortality at 50 µg/mL (Myzus persicae) [%] | mortality at 75 µg/mL (Myzus persicae) [%] | LC50 (Aphis citricola) [µg/mL] | mortality at 50 µg/mL (Tetranychus truncatus) [%] | mortality at 75 µg/mL (Tetranychus truncatus) [%] |
| --- | --- | --- | --- | --- | --- | --- | --- | --- | --- | --- | --- | --- | --- | --- | --- | --- | --- |
| C[C@]12CC[C@H](O)CC1CC[C@@H]1[C@@H]2CC[C@@]2(C)[C@H]1CCC(=O)N2C(=O)c1cccc(Br)c1 (stereo partly shown) [Compound (1)-6] | 24.9 | 55.3 | 45.2 | 59.2 | 59.9 | 80 | 56.1 | 67.5 | 51.7 | 73.6 | 44.9 | 78.4 | 60.2 | 77.5 |  |  |  |
| COc1ccc(C(=O)N2C(=O)CC[C@H]3[C@@H]4CC=C5C[C@@H](O)CC[C@]5(C)[C@H]4CC[C@@]32C)cc1 [Compound (2)-10] |  |  | 33.2 | 36 |  |  | 48.5 | 69.1 |  |  |  |  |  |  |  |  |  |
| C[C@]12CC[C@H](O)CC1=CC[C@@H]1[C@@H]2CC[C@@]2(C)[C@H]1CCC(=O)N2C(=O)c1ccc(C(F)(F)F)cc1 [Compound (2)-12] | 33.8 | 55.5 | 54 | 63 | 65 | 84.3 | 47.5 | 58.6 | 61.8 | 82.8 | 60.7 | 83 | 59.1 | 79.8 | 21.9 (≈ 46.1 µM) |  |  |
| O=[N+]([O-])NC1=NCCN1Cc1ccc(Cl)nc1 [Imidacloprid, reference compound] |  |  | 61.2 | 82.3 |  |  |  |  |  |  |  |  |  |  |  |  |  |
| C[C@]12CC[C@H](O)CC1=CC[C@@H]1[C@@H]2CC[C@@]2(C)[C@H]1CCC(=O)N2C(=O)c1cccc(C(F)(F)F)c1 [Compound (2)-11] |  |  | 35.3 | 57.8 | 40 | 59.7 | 45.4 | 58.3 | 42.7 | 65.5 | 44.9 | 72.7 | 40.9 | 66.3 |  |  |  |
| Cc1ccccc1C(=O)N1C(=O)CC[C@H]2[C@@H]3CC=C4C[C@@H](O)CC[C@]4(C)[C@H]3CC[C@@]21C [Compound (2)-7] | 66.8 | 88.5 | 64.2 | 79.2 | 96 | 100 | 76.3 | 88.5 | 94.4 | 100 | 92.1 | 100 | 93.2 | 100 | 10.3 (≈ 24.4 µM) |  |  |
| C[C@]12CC[C@H](O)CC1CC[C@@H]1[C@@H]2CC[C@@]2(C)[C@H]1CCC(=O)N2C(=O)c1cccc(F)c1 (stereo partly shown) [Compound (1)-2] |  |  | 52.1 | 60.3 | 22.1 | 50.4 |  |  | 30.3 | 54 | 39.3 | 61.4 | 26.1 | 55.1 |  |  |  |
| C[C@]12CC[C@H](O)CC1=CC[C@@H]1[C@@H]2CC[C@@]2(C)[C@H]1CCC(=O)N2C(=O)c1ccc([N+](=O)[O-])cc1 [Compound (2)-13] | 33.2 | 56.8 |  |  |  |  |  |  |  |  |  |  |  |  |  |  |  |
| Cc1ccc(C(=O)N2C(=O)CC[C@H]3[C@@H]4CC=C5C[C@@H](O)CC[C@]5(C)[C@H]4CC[C@@]32C)cc1 [Compound (2)-9] | 55.2 | 77.5 | 59.6 | 66.2 | 85.5 | 100 | 63.4 | 75.9 | 78.7 | 100 | 88.8 | 100 | 80.7 | 100 | 14.2 (≈ 33.7 µM) |  |  |
| C[C@]12CC[C@H](O)CC1CC[C@@H]1[C@@H]2CC[C@@]2(C)[C@H]1CCC(=O)N2C(=O)c1cccc(C(F)(F)F)c1 (stereo partly shown) [Compound (1)-11] |  |  |  |  | 30.4 | 56.5 |  |  | 24.7 | 50.6 | 25.8 | 54.5 | 25 | 52.8 |  |  |  |
| C/C(=N\C#N)N(C)Cc1ccc(Cl)nc1 [Acetamiprid, reference compound] |  |  |  |  | 95.5 | 100 |  |  | 94.4 | 100 | 93.3 | 100 | 94.3 | 100 | 9.95 (≈ 44.7 µM) |  |  |
| Cc1cccc(C(=O)N2C(=O)CC[C@H]3[C@@H]4CC=C5C[C@@H](O)CC[C@]5(C)[C@H]4CC[C@@]32C)c1 [Compound (2)-8] | 30.3 | 54.4 | 41.9 | 52.4 | 54.9 | 73.3 | 31.8 | 56.3 | 51.7 | 70.1 | 48.3 | 70.5 | 43.2 | 69.7 |  |  |  |
| Cc1cccc(C(=O)N2C(=O)CC[C@H]3[C@@H]4CCC5C[C@@H](O)CC[C@]5(C)[C@H]4CC[C@@]32C)c1 (stereo partly shown) [Compound (1)-8] |  |  | 38.4 | 53.6 |  |  |  |  |  |  |  |  |  |  |  |  |  |
| C[C@]12CC[C@H](O)CC1CC[C@@H]1[C@@H]2CC[C@@]2(C)[C@H]1CCC(=O)N2C(=O)c1ccccc1F (stereo partly shown) [Compound (1)-1] |  |  | 42.3 | 56.9 | 50 | 70.3 |  |  | 42.7 | 65.5 | 56.2 | 78.4 | 53.4 | 75.3 |  |  |  |
| C[C@]12CC[C@H](O)CC1CC[C@@H]1[C@@H]2CC[C@@]2(C)[C@H]1CCC(=O)N2C(=O)c1ccc(Cl)cc1 (stereo partly shown) [Compound (1)-4] | 64.2 | 88.6 | 72 | 80.4 | 91 | 100 | 72.5 | 87.4 | 86.5 | 100 | 89.9 | 100 | 84.1 | 100 | 11.9 (≈ 26.8 µM) |  |  |
| C[C@]12CC[C@H](O)CC1CC[C@@H]1[C@@H]2CC[C@@]2(C)[C@H]1CCC(=O)N2C(=O)c1ccc(C(F)(F)F)cc1 (stereo partly shown) [Compound (1)-12] |  |  |  |  | 24.8 | 55.7 |  |  | 29.2 | 57.5 | 32.6 | 65.9 | 30.7 | 57.3 |  |  |  |
| CN1COCN(Cc2cnc(Cl)s2)/C1=N\[N+](=O)[O-] [Thiamethoxam, reference compound] |  |  |  |  |  |  | 59.5 | 76.2 |  |  |  |  |  |  |  |  |  |
| C[C@]12CC[C@H](O)CC1=CC[C@@H]1[C@@H]2CC[C@@]2(C)[C@H]1CCC(=O)N2C(=O)c1ccccc1Br [Compound (2)-5] | 43.5 | 69.6 |  |  |  |  |  |  |  |  |  |  |  |  |  |  |  |
| Cc1ccccc1C(=O)N1C(=O)CC[C@H]2[C@@H]3CCC4C[C@@H](O)CC[C@]4(C)[C@H]3CC[C@@]21C (stereo partly shown) [Compound (1)-7] |  |  | 36.2 | 45.8 |  |  |  |  |  |  |  |  |  |  |  |  |  |
| CC(C)(C)c1ccc(CSc2cnn(C(C)(C)C)c(=O)c2Cl)cc1 [Pyridaben, reference compound] |  |  |  |  |  |  |  |  |  |  |  |  |  |  |  | 65.3 | 89.3 |
